The compounds below were run against T1, Human full-length Hsp90 (Homo sapiens, UniProt P08238) (assay: Fluorescence polarization assay (competitive binding to HSP90, probe RBT0045864-FAM)). Conditions: not given.
T1 construct: E. coli expressed human full-length HSP90 protein, purified >95%; made in house; host or cells: E. coli
How it was run: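 Competitive fluorescence polarization: test compound displaces FAM-labelled probe RBT0045864-FAM (200 nM working solution) from HSP90 after equilibration, and anisotropy change is measured. Compounds serially diluted; BSA-containing buffer; standard compound as positive control; Z′ from zero and positive controls.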

T1 sequence (P08238 whole entry): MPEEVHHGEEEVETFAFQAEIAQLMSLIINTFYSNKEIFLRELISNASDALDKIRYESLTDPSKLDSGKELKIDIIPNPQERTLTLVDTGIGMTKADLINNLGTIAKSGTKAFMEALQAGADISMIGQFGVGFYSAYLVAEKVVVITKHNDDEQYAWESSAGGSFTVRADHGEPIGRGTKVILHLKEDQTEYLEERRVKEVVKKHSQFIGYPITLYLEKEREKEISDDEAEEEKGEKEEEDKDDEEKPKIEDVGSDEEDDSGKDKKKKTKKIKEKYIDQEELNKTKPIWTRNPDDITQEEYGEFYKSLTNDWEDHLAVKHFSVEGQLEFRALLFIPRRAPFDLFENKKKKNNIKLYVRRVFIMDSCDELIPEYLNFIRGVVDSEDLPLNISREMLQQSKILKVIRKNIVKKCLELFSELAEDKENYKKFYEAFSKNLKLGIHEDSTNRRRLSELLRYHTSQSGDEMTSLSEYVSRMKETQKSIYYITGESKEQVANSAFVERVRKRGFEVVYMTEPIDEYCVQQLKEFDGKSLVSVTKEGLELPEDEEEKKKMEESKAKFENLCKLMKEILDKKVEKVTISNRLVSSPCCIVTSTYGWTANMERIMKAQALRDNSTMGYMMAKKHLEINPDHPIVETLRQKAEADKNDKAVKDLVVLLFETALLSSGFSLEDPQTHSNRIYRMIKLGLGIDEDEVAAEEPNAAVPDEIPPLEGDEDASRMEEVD

SMILES	IC50 [µM]
CCN(CC)CCOc1cc(-c2nc(N)nc3sc(C(=O)NC4CC4)cc23)c(Cl)cc1Cl [Example 251]	< 10
CCNC(=O)c1cc2c(-c3cc(OCCN4CCCC4)c(Cl)cc3Cl)nc(N)nc2s1 [Example 253]	< 10
CCNC(=O)c1cc2c(-c3cc(OCCN(C)C)c(Cl)cc3Cl)nc(N)nc2s1 [Example 254]	< 10
CCNC(=O)c1cc2c(-c3cc(OCCCN(C)C)c(Cl)cc3Cl)nc(N)nc2s1 [Example 255]	< 10
CCNC(=O)c1cc2c(-c3cc(OCC(N)=O)c(Cl)cc3Cl)nc(N)nc2s1 [Example 267]	< 10
CCNC(=O)c1cc2c(-c3cc(OCC#N)c(Cl)cc3Cl)nc(N)nc2s1 [Example 270]	< 10

Same assay, conditions: fluorescence polarization assay, activity range; read-out: Hsp90 FP IC50

IC50 [µM]	SMILES
< 10	CCNC(=O)c1cc2c(-c3cc(OCC(C)CN(C)C)c(Cl)cc3Cl)nc(N)nc2s1 (stereo not drawn) [Example 256]
< 10	CC(C)NC(=O)c1cc2c(-c3cc(OCCN4CCCC4)c(Cl)cc3Cl)nc(N)nc2s1 [Example 257]
< 10	CCN(CC)CCOc1cc(-c2nc(N)nc3sc(C(=O)NCCO)cc23)c(Cl)cc1Cl [Example 258]
< 10	CCNC(=O)c1cc2c(-c3cccc(OCCN(CC)CC)c3)nc(N)nc2s1 [Example 260]
< 10	CCNC(=O)c1cc2c(-c3cc(OCc4ccccn4)c(Cl)cc3Cl)nc(N)nc2s1 [Example 261]
< 10	CCNC(=O)c1cc2c(-c3cc(OCC4CCCO4)c(Cl)cc3Cl)nc(N)nc2s1 (stereo not drawn) [Example 262]
< 10	CCNC(=O)c1cc2c(-c3cc(OCCn4ccnc4)c(Cl)cc3Cl)nc(N)nc2s1 [Example 263]
< 10	CCN(CC)CCOc1cc(-c2nc(N)nc3sc(C(=O)NC(C)(C)C)cc23)c(Cl)cc1Cl [Example 265]
< 10	CCN(CC)CCOc1cc(-c2nc(N)nc3sc(C(=O)NC(CO)CO)cc23)c(Cl)cc1Cl [Example 266]
< 10	CCNC(=O)c1cc2c(-c3cc(OCc4cc(=O)[nH]c(=O)[nH]4)c(Cl)cc3Cl)nc(N)nc2s1 [Example 268]
< 10	CCNC(=O)c1cc2c(-c3cc(OCc4noc(-c5ccccc5OC)n4)c(Cl)cc3Cl)nc(N)nc2s1 [Example 269]
< 10	CCNC(=O)c1cc2c(-c3cc(OCC(=O)N4CCOCC4)c(Cl)cc3Cl)nc(N)nc2s1 [Example 271]
< 10	CCNC(=O)c1cc2c(-c3cc(OCC4CCCCN4C)c(Cl)cc3Cl)nc(N)nc2s1 (stereo not drawn) [Example 273, 2-Amino-4-[2,4-dichloro-5-(1-methyl-piperidin-2-ylmethoxy)-phenyl]-thieno[2,3d]pyrimidine-6-carboxylic acid ethylamide]
< 10	Cc1ccc(-c2nc(N)nc3sc(S(=O)(=O)NC4CC4)cc23)c(C)c1 [Example 274, 2-Amino-4-(2,4-dimethyl-phenyl)-thieno[2,3-d]pyrimidine-6-sulfonic acid cyclopropylamide]
< 10	CCOC(=O)c1cc2c(CCc3ccccc3)nc(N)nc2s1 [Example 275, 2-Amino-4-phenethyl-thieno[2,3-d]pyrimidine-6-carboxylic acid ethyl ester]
< 10	C=C(c1ccccc1)c1nc(N)nc2sc(C(=O)OCC)cc12 [Example 276]
< 10	C=C(c1ccc(F)cc1)c1nc(N)nc2sc(C(=O)OCC)cc12 [Example 277]
< 10	CCOC(=O)c1cc2c(/C=C/c3ccccc3)nc(N)nc2s1 [Example 278]
< 10	CCOC(=O)c1cc2c(/C=C/c3cccc(OC)c3)nc(N)nc2s1 [Example 279]
< 10	C=C(c1ccc(Cl)cc1)c1nc(N)nc2sc(C(=O)OCC)cc12 [Example 280]
< 10	CCOC(=O)c1cc2c(/C=C/c3ccc(Cl)cc3)nc(N)nc2s1 [Example 281]
< 10	CCOC(=O)c1cc2c(/C=C/c3ccc(F)cc3)nc(N)nc2s1 [Example 282]
< 10	C=C(c1ccccc1)c1nc(N)nc2sc(C(=O)NCC)cc12 [Example 283]
< 10	CCOC(=O)c1cc2c(/C=C/c3cccc(C(F)(F)F)c3)nc(N)nc2s1 [Example 284]
